Experimental data published in patent US11945836B2, “Compositions and methods for treating CNS disorders” (Sage Therapeutics, Inc., priority 2014, dated 2024).

Biological target: rat brain cortical membranes ([35S]-TBPS binding)
Experiment: Steroid inhibition of [35S]-TBPS binding (radioligand displacement)
Conditions: 3 nM [35S]-TBPS, in the presence of 5 μM GABA
Protocol: Steroid Inhibition of TBPS Binding
TBPS binding assays using rat brain cortical membranes in the presence of 5 μM GABA has been described (Gee et al, J. Pharmacol. Exp. Ther. 1987, 241, 346-353; Hawkinson et al, Mol. Pharmacol. 1994, 46, 977-985; Lewin, A. H et al., Mol. Pharmacol. 1989, 35, 189-194).
Briefly, cortices are rapidly removed following decapitation of carbon dioxide-anesthetized Sprague-Dawley rats (200-250 g). The cortices are homogenized in 10 volumes of ice-cold 0.32 M sucrose using a glass/teflon homogenizer and centrifuged at 1500×g for 10 min at 4° C. The resultant supernatants are centrifuged at 10,000×g for 20 min at 4° C. to obtain the P2 pellets. The P2 pellets are resuspended in 200 mM NaCl/50 mM Na—K phosphate pH 7.4 buffer and centrifuged at 10,000×g for 10 min at 4° C. This washing procedure is repeated twice and the pellets are resuspended in 10 volumes of buffer. Aliquots (100 uL) of the membrane suspensions are incubated with 3 nM [^35S]-TBPS and 5 μL aliquots of test drug dissolved in dimethyl sulfoxide (DMSO) (final 0.5%) in the presence of 5 μM GABA. The incubation is brought to a final volume of 1.0 mL with buffer. […] Following a 90 min incubation at room temp, the assays are terminated by filtration through glass fiber filters (Schleicher and Schuell No. 32) using a cell harvester (Brandel) and rinsed three times with ice-cold buffer. Filter bound radioactivity is measured by liquid scintillation spectrometry. Non-linear curve fitting of the overall data for each drug averaged for each concentration is done using Prism (GraphPad). […] The concentration of test compound producing 50% inhibition (IC50) of specific binding and the maximal extent of inhibition (Imax) are determined for the individual experiments with the same model used for the overall data and then the means±SEMs of the individual experiments are calculated.
Various compounds are or can be screened to determine their potential as modulators of [^35S]-TBPS binding in vitro. These assays are or can be performed in accordance with the above discussed procedures.

SMILES	IC50
C[C@@]1(O)CC[C@H]2[C@@H](CC[C@@H]3[C@@H]2CC[C@]2(C)[C@@H](C(=O)c4ccc5ccccc5c4)CC[C@@H]32)C1 [Compound 59]	50 to 100 nM
C[C@@]1(O)CC[C@H]2[C@H](CC[C@@H]3[C@@H]2CC[C@]2(C)[C@@H](C(=O)c4ccccn4)CC[C@@H]32)C1 [Compound 60]	> 100 nM
COc1ccc(C(=O)[C@H]2CC[C@H]3[C@@H]4CC[C@@H]5C[C@](C)(O)CC[C@]5(C)[C@H]4CC[C@]23C)cc1 [Compound 61]	> 100 nM
C[C@@]1(O)CC[C@@]2(C)[C@H](CC[C@@H]3[C@@H]2CC[C@]2(C)[C@@H](C(=O)c4ccccn4)CC[C@@H]32)C1 [Compound 62]	> 100 nM
COc1cccc(C(=O)[C@H]2CC[C@H]3[C@@H]4CC[C@@H]5C[C@](C)(O)CC[C@]5(C)[C@H]4CC[C@]23C)c1 [Compound 63]	50 to 100 nM
Cc1ccccc1C(=O)[C@H]1CC[C@H]2[C@@H]3CC[C@@H]4C[C@](C)(O)CC[C@@H]4[C@H]3CC[C@]12C [Compound 64]	> 100 nM
C[C@@]1(O)CC[C@H]2[C@H](CC[C@@H]3[C@@H]2CC[C@]2(C)[C@@H](C(=O)c4cccnc4)CC[C@@H]32)C1 [Compound 70]	50 to 100 nM
COc1cccc(C(=O)[C@H]2CC[C@H]3[C@@H]4CC[C@H]5C[C@](C)(O)CC[C@@H]5[C@H]4CC[C@]23C)c1 [Compound 71]	> 100 nM
COc1ccc2cc(C(=O)[C@H]3CC[C@H]4[C@@H]5CC[C@@H]6C[C@](C)(O)CC[C@@H]6[C@H]5CC[C@]34C)ccc2c1 [Compound 72]	20 to 50 nM
Cc1cccc(C(=O)[C@H]2CC[C@H]3[C@@H]4CC[C@@H]5C[C@](C)(O)CC[C@]5(C)[C@H]4CC[C@]23C)c1 [Compound 73]	50 to 100 nM
Cc1cccc(C(=O)[C@H]2CC[C@H]3[C@@H]4CC[C@@H]5C[C@](C)(O)CC[C@@H]5[C@H]4CC[C@]23C)c1 [Compound 74]	20 to 50 nM
Cc1ccc(C(=O)[C@H]2CC[C@H]3[C@@H]4CC[C@H]5C[C@](C)(O)CC[C@]5(C)[C@H]4CC[C@]23C)cc1 [Compound 75]	> 100 nM
COc1ccc(C(=O)[C@H]2CC[C@H]3[C@@H]4CC[C@H]5C[C@](C)(O)CC[C@]5(C)[C@H]4CC[C@]23C)cc1 [Compound 76]	> 100 nM
COc1cccc(C(=O)[C@H]2CC[C@H]3[C@@H]4CC[C@H]5C[C@](C)(O)CC[C@]5(C)[C@H]4CC[C@]23C)c1 [Compound 77]	> 100 nM
COc1ccccc1C(=O)[C@H]1CC[C@H]2[C@@H]3CC[C@H]4C[C@](C)(O)CC[C@]4(C)[C@H]3CC[C@]12C [Compound 78]	> 100 nM
C[C@@]1(O)CC[C@@]2(C)[C@@H](CC[C@@H]3[C@@H]2CC[C@]2(C)[C@@H](C(=O)c4ccc(F)cc4)CC[C@@H]32)C1 [Compound 79]	> 100 nM
C[C@@]1(O)CC[C@@]2(C)[C@@H](CC[C@@H]3[C@@H]2CC[C@]2(C)[C@@H](C(=O)c4ccccc4F)CC[C@@H]32)C1 [Compound 80]	> 100 nM
C[C@@]1(O)CC[C@@]2(C)[C@@H](CC[C@@H]3[C@@H]2CC[C@]2(C)[C@@H](C(=O)c4ccc(Cl)cc4)CC[C@@H]32)C1 [Compound 81]	> 100 nM
Cc1cccc(C(=O)[C@H]2CC[C@H]3[C@@H]4CC[C@H]5C[C@](C)(O)CC[C@]5(C)[C@H]4CC[C@]23C)c1 [Compound 82]	> 100 nM
C[C@@]1(O)CC[C@@]2(C)[C@H](CC[C@@H]3[C@@H]2CC[C@]2(C)[C@@H](C(=O)c4cccc(F)c4)CC[C@@H]32)C1 [Compound 83]	20 to 50 nM
C[C@@]1(O)CC[C@@]2(C)[C@H](CC[C@@H]3[C@@H]2CC[C@]2(C)[C@@H](C(=O)c4ccccc4F)CC[C@@H]32)C1 [Compound 84]	> 100 nM
COc1ccc2cc(C(=O)[C@H]3CC[C@H]4[C@@H]5CC[C@@H]6C[C@](C)(O)CC[C@]6(C)[C@H]5CC[C@]34C)ccc2c1 [Compound 85]	> 100 nM
Cc1ccc(C(=O)[C@H]2CC[C@H]3[C@@H]4CC[C@@H]5C[C@](C)(O)CC[C@@H]5[C@H]4CC[C@]23C)cc1 [Compound 86]	20 to 50 nM
COc1ccc(C(=O)[C@H]2CC[C@H]3[C@@H]4CC[C@H]5C[C@](C)(O)CC[C@@H]5[C@H]4CC[C@]23C)cc1 [Compound 87]	> 100 nM
C[C@@]1(O)CC[C@H]2[C@H](CC[C@@H]3[C@@H]2CC[C@]2(C)[C@@H](C(=O)c4cnc[nH]4)CC[C@@H]32)C1 [Compound 88]	> 100 nM

SMILES	IC50
Cc1ccc(C(=O)[C@H]2CC[C@H]3[C@@H]4CC[C@@H]5C[C@](C)(O)CC[C@]5(C)[C@H]4CC[C@]23C)cc1 [Compound 89]	50 to 100 nM
COC[C@]12CC[C@@](C)(O)C[C@@H]1CC[C@H]1[C@@H]3CC[C@H](C(=O)c4ccccc4-c4ccccc4)[C@@]3(C)CC[C@@H]12 [Compound 91]	> 100 nM
COC[C@]12CC[C@@](C)(O)C[C@@H]1CC[C@H]1[C@@H]3CC[C@H](C(=O)c4ccc(C)cc4)[C@@]3(C)CC[C@@H]12 [Compound 92]	> 100 nM
COC[C@]12CC[C@@](C)(O)C[C@@H]1CC[C@H]1[C@@H]3CC[C@H](C(=O)c4cc(C)cc(C)c4)[C@@]3(C)CC[C@@H]12 [Compound 93]	50 to 100 nM
COC[C@]12CC[C@@](C)(O)C[C@@H]1CC[C@H]1[C@@H]3CC[C@H](C(=O)c4ccc5c(c4)OCO5)[C@@]3(C)CC[C@@H]12 [Compound 94]	50 to 100 nM
COC[C@]12CC[C@@](C)(O)C[C@@H]1CC[C@H]1[C@@H]3CC[C@H](C(=O)c4ccc(C)c(C)c4)[C@@]3(C)CC[C@@H]12 [Compound 95]	> 100 nM
COC[C@]12CC[C@@](C)(O)C[C@@H]1CC[C@H]1[C@@H]3CC[C@H](C(=O)c4ccc(OC)cc4C)[C@@]3(C)CC[C@@H]12 [Compound 96]	> 100 nM
COC[C@]12CC[C@@](C)(O)C[C@@H]1CC[C@H]1[C@@H]3CC[C@H](C(=O)c4ccc5cc(OC)ccc5c4)[C@@]3(C)CC[C@@H]12 [Compound 97]	> 100 nM
C[C@@]1(O)CC[C@H]2[C@H](CC[C@@H]3[C@@H]2CC[C@]2(C)[C@@H](C(=O)c4cnn[nH]4)CC[C@@H]32)C1 [Compound 98]	> 100 nM
Cn1ncc(C(=O)[C@H]2CC[C@H]3[C@@H]4CC[C@@H]5C[C@](C)(O)CC[C@@H]5[C@H]4CC[C@]23C)n1 [Compound 99]	> 100 nM
Cn1cc(C(=O)[C@H]2CC[C@H]3[C@@H]4CC[C@@H]5C[C@](C)(O)CC[C@@H]5[C@H]4CC[C@]23C)nn1 [Compound 100]	> 100 nM
C[C@@]1(O)CC[C@@]2(C)[C@@H](CC[C@@H]3[C@@H]2CC[C@]2(C)[C@@H](C(=O)c4cccc(Cl)c4)CC[C@@H]32)C1 [Compound 101]	> 100 nM
COC[C@]12CC[C@@](C)(O)C[C@@H]1CC[C@H]1[C@@H]3CC[C@H](C(=O)c4ccc(OC(F)(F)F)cc4)[C@@]3(C)CC[C@@H]12 [Compound 102]	50 to 100 nM
COC[C@]12CC[C@@](C)(O)C[C@@H]1CC[C@H]1[C@@H]3CC[C@H](C(=O)c4cccc(C)c4)[C@@]3(C)CC[C@@H]12 [Compound 103]	> 100 nM
CCc1ccc(C(=O)[C@H]2CC[C@H]3[C@@H]4CC[C@H]5C[C@](C)(O)CC[C@]5(COC)[C@H]4CC[C@]23C)cc1 [Compound 104]	> 100 nM
COC[C@]12CC[C@@](C)(O)C[C@@H]1CC[C@H]1[C@@H]3CC[C@H](C(=O)c4ccccc4OC)[C@@]3(C)CC[C@@H]12 [Compound 105]	> 100 nM
COC[C@]12CC[C@@](C)(O)C[C@@H]1CC[C@H]1[C@@H]3CC[C@H](C(=O)c4cccc(OC)c4)[C@@]3(C)CC[C@@H]12 [Compound 106]	> 100 nM
COC[C@]12CC[C@@](C)(O)C[C@@H]1CC[C@H]1[C@@H]3CC[C@H](C(=O)c4ccc(OC)cc4)[C@@]3(C)CC[C@@H]12 [Compound 107]	50 to 100 nM
C[C@@]1(O)CC[C@@]2(C)[C@@H](CC[C@@H]3[C@@H]2CC[C@]2(C)[C@@H](C(=O)c4ccc(OC(F)(F)F)cc4)CC[C@@H]32)C1 [Compound 108]	> 100 nM
COC[C@]12CC[C@@](C)(O)C[C@@H]1CC[C@H]1[C@@H]3CC[C@H](C(=O)c4ccc(N(C)C)cc4)[C@@]3(C)CC[C@@H]12 [Compound 109]	> 100 nM
COC[C@]12CC[C@@](C)(O)C[C@@H]1CC[C@H]1[C@@H]3CC[C@H](C(=O)c4cccc(Cl)c4)[C@@]3(C)CC[C@@H]12 [Compound 110]	50 to 100 nM
CN(C)c1ccc(C(=O)[C@H]2CC[C@H]3[C@@H]4CC[C@H]5C[C@](C)(O)CC[C@@H]5[C@H]4CC[C@]23C)cc1 [Compound 111]	> 100 nM
C[C@@]1(O)CC[C@@]2(C)[C@@H](CC[C@@H]3[C@@H]2CC[C@]2(C)[C@@H](C(=O)c4ccccn4)CC[C@@H]32)C1 [Compound 113]	> 100 nM
CN(C)c1ccc(C(=O)[C@H]2CC[C@H]3[C@@H]4CC[C@H]5C[C@](C)(O)CC[C@]5(C)[C@H]4CC[C@]23C)cc1 [Compound 114]	> 100 nM
COC[C@]12CC[C@@](C)(O)C[C@@H]1CC[C@H]1[C@@H]3CC[C@H](C(=O)c4ccccn4)[C@@]3(C)CC[C@@H]12 [Compound 115]	> 100 nM
